Test [1] relates to Drosophila melanogaster. Put plainly: Larval mass assay: larval area on defined diet, axenic or mono-associated with one bacterium (Example 8). It is filed as in vivo. Conditions: after 13 days, 10-15 larvae per replicate, FIG. 3. An excerpt:
For the experimental setup to measure the larval growth rate, defined diet was used (Piper et al., 2014, Nature Methods). Defined diet eliminates the effects of batch to batch variation in the ingredients used for the cornmeal based diet. In addition, the defined diet allows for the exclusion of individual components to test their effects on fly development.
To test whether the presence of bacteria producing amino acids can increase the body mass of developing larvae when raised on defined diet, we produced larvae that are axenic, and mono-associated with a single strain of bacterium. For these assays, three different bacteria were used, Corynebacterium glutamicum—a strain that produces glutamate, Corynebacterium glutamicum—a strain that produces methionine, and E. coli.
First, axenic embryos were generated. Fertilized embryos were collected from fruit flies over a 6 hour period on grape juice agar plates with yeast. To eliminate any bacterial contamination, the embryos were treated with 2% hypochlorite solution for five minutes and then washed thrice with sterile water. One volume of embryos was then suspended in 3 volumes of water.
The defined diet was aliquoted into vials and nine replicates were used for every condition being tested. […]
After 13 days, 10-15 randomly chosen larvae from each replicate were sampled, and their areas were measured, as a proxy to their biomass and weight. […]

For test [2], the system named is fungi. Particulars: cited from earlier work.
Test [3] deals with target bacterial strains. Conditions: against its target bacterial strains; cited from earlier work.
Test [4] deals with Drosophila melanogaster. The test can be described thus: Development rate assay: time to adult emergence on diet seeded with Corynebacterium glutamicum (Example 8). It is filed as in vivo. Conditions: diet seeded with 10^9 CFUs of bacteria vs axenic/sterile diet; adults counted every 12 hours. The protocol: The media used to rear flies is cornmeal, molasses and yeast medium (11 g/l yeast, 54 g/l yellow cornmeal, 5 g/l agar, 66 ml/l molasses, and 4.8 ml/l propionic acid). All the components of the diet except propionic acid are heated together to 80° C. in deionized water with constant mixing for 30 minutes and let to cool to 60° C. Propionic acid is then mixed in and 50 ml of the diet is aliquoted into individual bottles and allowed to cool down and solidify. The flies are raised at 26° C., 16:8 hour light:dark cycle, at around 60% humidity.
On day one, 100 ul of a Corynebacterium glutamicum suspension in nutrient broth consisting of 10^9 colony forming units (CFUs) were added to five replicates of fly food. As controls, nutrient broth without the bacteria was added to five more bottles of fly food. Fertilized embryos collected from fruit flies were treated with 2% hypochlorite solution for five minutes and then washed with sterile water to remove any extracellular microbes from the embryos. 10 ul of the embryo suspension in water (one:three embryo:water suspension) was added to all the bacteria seeded and control fly food bottles. […] The time to adult emergence and the rate of emergence was measured in every replicate. From the time the first adult emerges from the pupa, the number of adult flies emerging was counted every 12 hours and rate of emergence was be computed.

For Corynebacterium glutamicum [C. glu-Met], the “larval body size (area of the larvae, proxy to biomass and weight)” value in test [1] is “largest body size on average”.
Turning to alirin B1, the antifungal activities entry in test [2] was “have been shown to have antifungal activities”.
In the case of nisin, the “concentration showing antimicrobial activity” value in test [3] is on record as “single-digit nanomolar concentration”.
Regarding botrycidin AJ1316, in test [2], the antifungal activities result is on record as “have been shown to have antifungal activities”.
In the case of “Corynebacterium glutamicum [C. glutamicum Glu]”, the “time to reach adulthood from embryos” value in test [4] is “reach adulthood faster than their bacteria free counterparts”.
